Results taken from patent US20240208896A1, “PRODRUGS OF KV7 CHANNEL OPENERS” (Xyzagen, Inc., priority 2021, published 2024).
Where two headings read alike, the source gives them in different places.

Key:
MES induced seizures = test: MES assay in CF-1 mice, Compound 28 IP dose response; type: in vivo, CF-1 mouse; settings: for Animals protected from MES induced seizures: 30 minutes after administration
[1] = Acid and organic solution stability, HPLC-UV 250 nm; settings: 5 mg/mL; for Degradation / conversion to ezogabine in solution: acidic solutions and organic solvents, up to 3 weeks
Experimental: An HPLC-UV Vis method was developed using 0.1% Formic acid in water as mobile phase A and 0.1% Formic acid in acetonitrile as mobile Phase B. A gradient method was developed ramping from 10% A to 90% B over 8 minutes and then returning to 10% A at 8.5 minutes on a 4.6×50 mm Zorbax C-18 column. Injections of 10 uL of stability solutions were injected for analyte detection.
[…] Aliquots were collected at serial time points and then diluted to a nominal concentration of 100 ug/mL for injection to the HPLC and 250 nm monitored by the diode array detector. Data at approximately 10 days is presented.
Aliquots were collected at serial time points and then diluted to a nominal concentration of 100 ug/mL for injection to the HPLC and 250 nm monitored by the diode array detector.
(§1) It was also evaluated at 2 N HCl at 37° C. Aliquots were collected at serial time points and then diluted to a nominal concentration of 100 ug/mL for injection to the HPLC and 250 nm monitored by the diode array detector.
as §1, §1, §1

[2] = Rat PK at equimolar dose to Ezogabine (20 mg/kg) in 0.5% methylcellulose; settings: for AUClast/D / Cmax/D: male cannulated rats, equimolar to Ezogabine 20 mg/kg, 0.5% methylcellulose, analyte the dosed prodrug
Experimental: (§2) Blood samples were collected at the same time points over 24 hours to generate a concentration time profile. Two male rats were dosed per group. Plasma samples were analyzed by LC/MS/MS and the resulting concentration time profiles and PK parameters are provided.
as §2, §2

[3] = 1000 ng/mL
Experimental: Plasma was collected by the biomaterial vendor and kept frozen at −20° C.
The samples were analyzed by HPLC separation and mass spectrometry detection for prodrug amount, relative to a baseline time 0 control sample. Triplicate samples were generated at each time point and the peak area response was averaged and converted to a percent of baseline control.

[4] = Pharmacokinetics of ezogabine prodrugs in rat (IV, IM, PO); settings: rat, in vivo, po
Experimental: Blood was diluted by 10% with these stabilizers.
Extraction of the molecules was conducted by taking a 50 uL aliquot of plasma and adding 200 uL of acetonitrile containing 200 ng/mL tolbutamide as the internal standard. Samples were precipitated in a 96 well plate, centrifuges and an aliquot transferred to a new plate, dried down under heat and nitrogen and then reconstituted in the initial mobile phase conditions of the LC-MS/MS method. […] A standard curve was prepared from 5000 ng/mL to 1 ng/mL for each analyte. Concentration data from the bioanalytical run was analyzed by Phoenix Winnonlin version 8 for noncompartmental PK analysis, plotting of concentration time curves and tabulation of PK parameters.
150 uL of blood were collected at predesignated time points. At completion of the study animals were asphyxiated by carbon dioxide gas and exsanguinated for euthanasia.

[5] = system: CCI model of neuropathic pain; test: CCI model of neuropathic pain (pin prick, von Frey); type: in vivo, Sprague Dawley rat; settings: CCI rats, 1 h after pretreatment
Experimental: Compound 3 was tested for reversal of mechanical hypersensitivity to the pin prick test for hindlimb paw withdraw and the von Frey hairs for gram force mechanical allodynia in the CCI model of neuropathic pain. Male Sprague Dawley rats (n=8/group) were tested for baseline sensitivity on Day 1 (ipsilateral and contralateral paws) and administered XYG-203 orally; 40 mg/kg on Day 1, 20 mg/kg Day 3, 10 mg/kg Day 5, 5 mg/kg Day 7, 1 mg/kg Day 10 and baseline on Day 12. Mechanical hypersensitivity was tested 1 h after pretreatment. Data (mean±SD) were analyzed with a repeated measures ANOVA with Dunnet's adjustment for multiple comparisons.

[6] = Solvent solubility assessment by visual inspection; type: physicochemical
Experimental: Compounds were weighed and placed into a 4 dram vials and solvents were added to the target concentration. Compounds were vortex and visually inspected for particulates and considered soluble if clear upon visual inspection with and without magnification. Solubility was reported as either greater than (>) or less than (<) from the prepared concentration. […] It was evaluated at 10 mg/mL in 0.1 N NaCl and was freely soluble. It was evaluate at 1 mg/mL in 0.1 N NaOH and 0.1 N Na2HPO4 and was freely soluble. In ethanol and methanol it was freely soluble at a concentration of 75 mg/mL. […] It was freely soluble at 75 mg/mL in methanol and ethanol. It was soluble at 1 mg/mL in 1N HCl.

Human Kv7.2/7.3 = Human Kv7.2/7.3 (Homo sapiens, UniProt O43525+O43526); test: In vitro screen of Kv7.2/7.3 voltage gated potassium channels (FluxOR, FLIPR); type: cell-based; settings: Human Kv7.2/7.3 cells; FluxOR fluorescence; 0.03 to 30 μM
Chain of Human Kv7.2/7.3 (O43526 whole entry): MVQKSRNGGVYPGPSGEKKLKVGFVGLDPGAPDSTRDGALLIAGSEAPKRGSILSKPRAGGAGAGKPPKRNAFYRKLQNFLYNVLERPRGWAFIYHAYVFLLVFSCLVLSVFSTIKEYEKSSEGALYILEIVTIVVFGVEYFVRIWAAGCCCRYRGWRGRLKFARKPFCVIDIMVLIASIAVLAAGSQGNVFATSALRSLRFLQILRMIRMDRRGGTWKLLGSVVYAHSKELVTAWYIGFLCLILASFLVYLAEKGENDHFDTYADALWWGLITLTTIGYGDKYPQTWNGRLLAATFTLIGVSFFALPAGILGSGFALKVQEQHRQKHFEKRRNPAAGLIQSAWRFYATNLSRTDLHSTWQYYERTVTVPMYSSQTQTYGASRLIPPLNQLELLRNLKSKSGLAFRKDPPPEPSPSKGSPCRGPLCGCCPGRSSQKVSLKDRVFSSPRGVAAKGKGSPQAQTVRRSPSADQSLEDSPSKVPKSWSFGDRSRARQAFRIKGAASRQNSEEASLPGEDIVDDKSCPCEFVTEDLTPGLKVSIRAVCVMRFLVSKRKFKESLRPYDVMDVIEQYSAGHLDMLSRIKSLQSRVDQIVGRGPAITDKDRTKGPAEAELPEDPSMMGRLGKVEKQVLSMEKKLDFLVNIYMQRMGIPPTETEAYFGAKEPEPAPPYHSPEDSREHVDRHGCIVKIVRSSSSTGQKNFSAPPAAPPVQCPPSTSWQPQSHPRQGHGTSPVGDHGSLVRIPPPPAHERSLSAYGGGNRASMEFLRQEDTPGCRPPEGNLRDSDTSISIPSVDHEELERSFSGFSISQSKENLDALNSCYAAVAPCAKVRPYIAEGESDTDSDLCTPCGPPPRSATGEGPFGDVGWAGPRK
Chain of Human Kv7.2/7.3 (O43525 whole entry): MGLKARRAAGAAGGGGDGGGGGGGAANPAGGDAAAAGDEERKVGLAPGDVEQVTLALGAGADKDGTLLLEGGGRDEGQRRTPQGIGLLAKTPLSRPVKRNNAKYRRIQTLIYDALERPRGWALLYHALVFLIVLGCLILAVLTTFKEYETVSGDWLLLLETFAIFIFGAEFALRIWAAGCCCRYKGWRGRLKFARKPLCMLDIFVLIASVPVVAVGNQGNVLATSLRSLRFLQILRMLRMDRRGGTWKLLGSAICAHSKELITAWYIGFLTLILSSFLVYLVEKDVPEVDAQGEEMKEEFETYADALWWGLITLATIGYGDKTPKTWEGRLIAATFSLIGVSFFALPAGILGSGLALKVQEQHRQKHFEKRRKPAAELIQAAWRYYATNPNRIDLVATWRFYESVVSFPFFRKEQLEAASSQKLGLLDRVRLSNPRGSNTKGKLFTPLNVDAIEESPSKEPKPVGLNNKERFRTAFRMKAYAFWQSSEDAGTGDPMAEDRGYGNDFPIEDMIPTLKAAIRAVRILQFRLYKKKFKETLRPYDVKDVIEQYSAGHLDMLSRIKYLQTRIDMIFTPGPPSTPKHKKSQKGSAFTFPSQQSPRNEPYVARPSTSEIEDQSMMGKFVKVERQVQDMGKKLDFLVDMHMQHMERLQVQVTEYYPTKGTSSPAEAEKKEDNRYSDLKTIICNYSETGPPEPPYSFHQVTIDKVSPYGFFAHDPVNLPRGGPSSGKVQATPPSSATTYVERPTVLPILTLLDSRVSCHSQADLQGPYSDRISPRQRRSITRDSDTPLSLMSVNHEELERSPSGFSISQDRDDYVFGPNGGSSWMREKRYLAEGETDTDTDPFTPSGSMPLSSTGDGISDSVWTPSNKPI
Experimental: Human Kv7.2/7.3 cells are harvested, counted and seeded in black, clear-bottomed 96 well plates at a density of 50,000 cells per well in 100 μl volume and incubated overnight. The following day, media was removed and 40 μl of loading buffer (4.895 mL HBSS:HEPES, 50 μL probenecid, 50 μL power load, 5 μl FluxOR reagent) was added and incubated at room temperature for 30 minutes. After incubation loading buffer was removed and 40 μl of assay buffer added (4.45 ml HBSS:HEPES, 500 μl FluxOR assay buffer and 50 μL probenecid) and incubated for 10 minutes.

[7] = Benchtop solvent stability exposed to light, HPLC-UV 230 nm, up to 7 days; type: physicochemical; settings: for Stability in solvent: benchtop, exposed to light
Experimental: Compounds in solvent were left on the benchtop exposed to light for up to 7 days since it is known that Compound 1 will degrade with light within 3-7 days.
Stability was assessed by taking an aliquot from the solubility vials at each test day. A single replicate was injected for each test condition.
Samples were injected onto an HPLC system with an aqueous mobile phase and acetonitrile organic phase and compounds were separated on a C8 50×2 mm column. Wavelength 230 nm was monitored for absorption and integrated for peak area while the mass spectrometer was used to confirm mass. Samples were tested on Day 1 and on subsequent days through Day 7.

CCOC(=O)Nc1ccc(NCc2ccc(F)cc2)cc1NC(=O)C[C@@H](CN)CC(C)C [Compound 28]
Animals protected from MES induced seizures (MES induced seizures; IP 12 mg/kg): 1 of 9
Animals protected from MES induced seizures (MES induced seizures; IP 24 mg/kg): 3 of 9
Protection against MES induced seizures (MES induced seizures; IP 1.5, 3, 6, 12 and 24 mg/kg): None of the doses showed complete protection
Ezogabine Area (formed from the prodrug) ([1]; 0.1N HCl, room temp., normal light, 440 h): 0 mAU
Ezogabine Area (formed from the prodrug) ([1]; 1N HCl, room temp., normal light, 440 h): 568 mAU
Ezogabine Area (formed from the prodrug) ([1]; 2N HCl 37C, 440 h): 3593 mAU
Ezogabine Area (formed from the prodrug) ([1]; 2N HCl, room temp., normal light, 440 h): 1462 mAU
Ezogabine Area (formed from the prodrug) ([1]; Acetonitrile, room temp., normal light, 440 h): 248 mAU
Ezogabine Area (formed from the prodrug) ([1]; Methanol, room temp., normal light, 440 h): 0 mAU
Degradation / conversion to ezogabine in solution [1]: exhibits degradation to ezogabine with increasing strength of the acidic solution
AUClast/D [2]: 83.0 ng·h/mL/mg/kg
Cmax/D [2]: 9.31 ng/mL/mg/kg

CCOC(=O)Nc1ccc(NCc2ccc(F)cc2)cc1NC(=O)[C@H](N)CO [Compound 6]
Colour of stability solution [1]: remained clear and colorless through Day 18
Ezogabine Area (formed from the prodrug) ([1]; 1N HCl, room temp., normal light, 437 h): 58 mAU
Ezogabine Area (formed from the prodrug) ([1]; 2N HCl 37C, 437 h): 461 mAU
Ezogabine Area (formed from the prodrug) ([1]; 2N HCl, room temp., normal light, 437 h): 177 mAU
Ezogabine Area (formed from the prodrug) ([1]; Methanol, room temp., normal light, 437 h): 184 mAU
Degradation / conversion to ezogabine in solution [1]: very little degradation to ezogabine
% Remaining ([1]; 437 h): 67.7%
AUClast/D [2]: 199 ng·h/mL/mg/kg
Cmax/D [2]: 233 ng/mL/mg/kg

CCOC(=O)Nc1ccc(NCc2ccc(F)cc2)cc1NC(=O)OC(C)OC(=O)C(C)C (stereo not shown) [Compound 3]
Time by which prodrug is degraded in plasma ([3]; mouse): ≤ 1 h
Time by which prodrug is degraded in plasma ([3]; rat): ≤ 1 h
Exposure of the prodrug itself in systemic circulation [4]: very little exposure
Reversal of mechanical hypersensitivity vs baseline ([5]; oral 5 mg/kg): the 95% confidence intervals did not cross the baseline mean
Gram force to paw lift (von Frey) ([5]; oral 40 mg/kg): increased the gram force to paw lift significantly
Reduction of latency of neuropathic ipsilateral paw withdrawal (pin prick) ([5]; oral 40 mg/kg, p=0.0003): 9.2 s
Colour of stability solution [1]: clear and colorless through Day 18
Ezogabine Area (formed from the prodrug) ([1]; 0.1N HCl, room temp., normal light, 433 h): 400 mAU
Ezogabine Area (formed from the prodrug) ([1]; 1N HCl, room temp., normal light, 97 h): 2881 mAU
Ezogabine Area (formed from the prodrug) ([1]; Acetonitrile, room temp., normal light, 435 h): 51 mAU
Ezogabine Area (formed from the prodrug) ([1]; Ethanol, room temp., normal light, 390 h): 43 mAU
Ezogabine Area (formed from the prodrug) ([1]; Methanol, room temp., normal light, 435 h): 41 mAU
Degradation / conversion to ezogabine in solution [1]: converts to ezogabine under acidic conditions but does not in organic solvent
Colour of stability solution ([1]; 9 days): turned a golden yellow by Day 9
% Remaining ([1]; 390 h): 97.6%
% Remaining ([1]; buffer, 97 h): 1.78%
% Remaining ([1]; buffer, 433 h): 11.8%
Solubility ([6]; 0.1N HCl): <1000 µg/mL
Solubility ([6]; 0.1 N Na2HPO4, aqueous buffer, thermodynamic from solid, read-out: Solubility (freely soluble at tested concentration)): < 1000 µg/mL
Solubility ([6]; 0.1N NaCl): <1000 µg/mL
Solubility ([6]; 0.1 N NaCl, saline or isotonic, thermodynamic from solid, read-out: Solubility (freely soluble at tested concentration)): < 1000 µg/mL
Solubility ([6]; 0.1N NaOH): <1000 µg/mL
Solubility ([6]; 0.1 N NaOH, aqueous buffer, thermodynamic from solid, read-out: Solubility (freely soluble at tested concentration)): < 1000 µg/mL
Solubility ([6]; 0.1 Na2HPO4): <1000 µg/mL
Solubility ([6]; 1N HCl): >1000 µg/mL
Solubility ([6]; Ethanol): >75000 µg/mL
Solubility ([6]; Methanol): >75000 µg/mL
Solubility ([6]; Water): <1000 µg/mL
Solubility ([6]; aqueous buffer, thermodynamic from solid, 1N HCl, read-out: Solubility (soluble at tested concentration)): > 1000 µg/mL
Solubility ([6]; ethanol, organic solvent or mixture, thermodynamic from solid, read-out: Solubility (freely soluble at tested concentration)): > 75000 µg/mL
Solubility ([6]; methanol, organic solvent or mixture, thermodynamic from solid, read-out: Solubility (freely soluble at tested concentration)): > 75000 µg/mL
Solubility ([6]; simulated gastric fluid, thermodynamic from solid, 0.1N HCl, read-out: Solubility (freely soluble at tested concentration)): < 1000 µg/mL
Solubility ([6]; water, thermodynamic from solid, read-out: Solubility (freely soluble at tested concentration)): < 1000 µg/mL
Activity against the primary target of Kv7.2/7.3 (Human Kv7.2/7.3): inactive
AUClast/D [2]: 0.0136 ng·h/mL/mg/kg
Cmax/D [2]: 0.0273 ng/mL/mg/kg
Total exposure of ezogabine relative to ezogabine on a given molar dose ([2]; male, rat, in vivo): > 2 fold
Stability in solvent ([7]; 0.1 N HCl): appears to be stable over 4 days
Change of solubility over time ([7]; 0.1N Na2HPO4, H2O, 0.1N NaCl, Day 1 to Day 3): increases in solubility over time
Stability in solvent ([7]; 1 N HCl): not stable in 1 N HCl over 7 days
Stability in solvent ([7]; ethanol and methanol): soluble and stable through 3 days in ethanol and methanol, while on Day 4 it exhibits degradation

CCNC(=O)CC[C@H](N)C(=O)Nc1cc(NCc2ccc(F)cc2)ccc1NC(=O)OCC.Cl [Compound 29]
Ezogabine Area (formed from the prodrug) ([1]; 0.1N HCl, room temp., normal light, 441 h): 0 mAU
Ezogabine Area (formed from the prodrug) ([1]; 1N HCl, room temp., normal light, 441 h): 1241 mAU
Ezogabine Area (formed from the prodrug) ([1]; 2N HCl 37C, 441 h): 1755 mAU
Ezogabine Area (formed from the prodrug) ([1]; 2N HCl, room temp., normal light, 441 h): 1659 mAU
Ezogabine Area (formed from the prodrug) ([1]; Methanol, room temp., normal light, 441 h): 0 mAU
Degradation / conversion to ezogabine in solution [1]: exhibits degradation under acidic conditions and also conversion to ezogabine
AUClast/D [2]: 305 ng·h/mL/mg/kg
Cmax/D [2]: 44.2 ng/mL/mg/kg
